Laboratory results taken from patent US20230172946A1, “In-situ Gel Forming Ophthalmic Formulations Containing Difluprednate” (IVIEW Therapeutics, Inc., priority 2019, published 2023).

Legend:
[1] = cited from earlier work
[2] = Solubility of difluprednate with different surfactants/solubilizers; type: physicochemical
Procedure: To improve the solubility of difluprednate, different surfactants/solubilizers were investigated to discover suitable solubilizers. Different surfactants/solubilizers such as Poloxamer 188, Poloxamer 407, polysorbate 80, PEG 40 Caster Oil, PEG 60 Caster Oil, PEG 40 Hydrogenated Castor Oil, Polyoxyl 40 Stearate and Soluplus was dissolved in water with different concentrations. Difluprednate was added into the surfactant solutions with the final difluprednate concentration of 0.05%. The solubility of difluprednate was measured. […] Soluplus is a polyethylene glycol, polyvinyl acetate and polyvinylcaprolactame-based graft copolymer (PVAc-PVCap-PEG). It can form nanomicelles in water or other aqueous solutions, and solubilize poorly soluble difluprednate.

In the case of `CCCC(=O)O[C@]1(C(=O)COC(C)=O)CC[C@H]2[C@@H]3C[C@H](F)C4=CC(=O)C=C[C@]4(C)[C@@]3(F)[C@@H](O)C[C@@]21C` [Difluprednate], the solubility in water [1] is given as “practically insoluble in water”, the solubility of difluprednate ([2]; 5% Polyoxyethylene Castor Oil (RL-40)) is given as > 98% and the Solubility % ([2]; Benzyl Benzoate 2% in water, difluprednate 0.05%) is given as 0.37%. It also gave a Solubility % ([2]; Glyceryl Tricaprylate 0.2% in water, difluprednate 0.05%) of 0.84%, a Solubility % ([2]; Hypromellose 0.5% in water, difluprednate 0.05%) of 17.6% and a Solubility % ([2]; Poloxamer188 0.1% in water, difluprednate 0.05%) of 3.59%. It also gave a Solubility % ([2]; Poloxamer 407 0.2% in water, difluprednate 0.05%) of 2.20%, a Solubility % ([2]; Polyoxyethylene (23) Cetyl Ether 0.2% in water, difluprednate 0.05%) of 7.87% and a Solubility % ([2]; Polyoxyethylene (23) Cetyl Ether 0.45% in water, difluprednate 0.05%) of 15.41%. The Solubility % ([2]; Polyoxyethylene (23) Cetyl Ether 1.0% in water, difluprednate 0.05%) was 33.70%, the Solubility % ([2]; Polyoxyethylene (40) Monostearate 0.5% in water, difluprednate 0.05%) was 42.0% and the Solubility % ([2]; Polyoxyethylene (40) Stearate 7.0% in water, difluprednate 0.05%) was 5.1%. For the same molecule, the Solubility % ([2]; Polyoxyethylene (60) Castor Oil 5.0% in water, difluprednate 0.05%) was 95.3%, the solubility of difluprednate ([2]; Polyoxyethylene (60) Castor Oil, at least 4 or 5% needed) was > 95% and the Solubility % ([2]; Polyoxyethylene Castor Oil (EL) 5.0% in water, difluprednate 0.05%) was 93.5%. The Solubility % ([2]; Polyoxyethylene Castor Oil (EL-35) 5.0% in water, difluprednate 0.05% (second entry, r27)) was 96.3%, the solubility of difluprednate ([2]; Polyoxyethylene Castor Oil (EL-35), at least 4 or 5% needed) was > 95% and the Solubility % ([2]; Polyoxyethylene Castor Oil (EL-40) 5.0% in water, difluprednate 0.05%) was >98.0%. The Solubility % ([2]; Polyoxyethylene Hydrogenated Castor Oil (RH-40) 0.53% in water, difluprednate 0.05%) was 9.7%, the Solubility % ([2]; Polyoxyethylene Hydrogenated Castor Oil (RH-40) 1.0% in water, difluprednate 0.05%) was 18.6% and the Solubility % ([2]; Polyoxyethylene Hydrogenated Castor Oil (RH-40) 2.0% in water, difluprednate 0.05%) was 50.0%. For the same molecule, the Solubility % ([2]; Polyoxyethylene Hydrogenated Castor Oil (RH-40) 3.0% in water, difluprednate 0.05%) was 73.1%, the Solubility % ([2]; Polyoxyethylene Hydrogenated Castor Oil (RH-40) 4.0% in water, difluprednate 0.05%) was 88.1% and the Solubility % ([2]; Polyoxyethylene Hydrogenated Castor Oil (RH-40) 5.0% in water, difluprednate 0.05%) was 99.5%. It also gave a Solubility % ([2]; Polyoxyethylene castor oil (EL-35) 5.0% in water, difluprednate 0.05% (first entry, r11)) of 82.9%, a Solubility % ([2]; Polyoxyl 20 Cetostearyl Ether 1.0% in water, difluprednate 0.05%) of 37.2% and a Solubility % ([2]; Polyoxyl 20 Cetostearyl Ether 2.0% in water, difluprednate 0.05%) of 74.7%. The Solubility % ([2]; Polyoxyl 20 Cetostearyl Ether 3.0% in water, difluprednate 0.05%) was 79.9%, the Solubility % ([2]; Polyoxyl 20 Cetostearyl Ether 4.0% in water, difluprednate 0.05%) was 96.9% and the Solubility % ([2]; Polyoxyl 20 Cetostearyl Ether 5.0% in water, difluprednate 0.05%) was 96.9%. The Solubility % ([2]; Polysorbate 80 0.05% in water, difluprednate 0.05%) was 1.75%, the Solubility % ([2]; Soluplus 0.9% in water, difluprednate 0.05%) was 101.9% and the Solubility % ([2]; Soluplus 1.2% in water, difluprednate 0.05%) was 102.1%. It also gave a Solubility % ([2]; Soluplus 1.5% in water, difluprednate 0.05%) of 102.1%, a Solubility % ([2]; Sucrose Fatty Acid Ester 0.2% in water, difluprednate 0.05%) of 2.01% and a Solubility % ([2]; Sucrose Fatty Acid Ester 1.0% in water, difluprednate 0.05%) of 8.36%. For the same molecule, the Solubility % ([2]; Vitamin E Polyethylene Glycol Succinate 0.5% in water, difluprednate 0.05%) was 25.3%.
